# Measured values from PMC5974403, “The novel histone de acetylase 6 inhibitor, MPT0G211, ameliorates tau phosphorylation and cognitive deficits in an Alzheimer’s disease model” (Cell Death & Disease, 2018).
# What was measured:
# [1] = test system: SH-SY5Y cells; test: Immunoprecipitation/immunoblot of HDAC6, acetyl-lysine, ubiquitin in transfected SH-SY5Y cells; assay type: cell-based, human; conditions: 24 h
# Protocol: Fig. 4 MPT0G211 increased the ubiquitination of p-tau and degradation by proteasome. a, b SH-SY5Y and Neuro-2a cells were transfected for 24 h with pCAX APP 695 and pRK5-EGFP-Tau P301L and incubated with MPT0G211 or ACY-1215 (0.1 μM) for another 24 h, after which the cell lysates were immunoprecipitated with antibodies against HDAC6, acetyl-lysine (a) or ubiquitin (b) and were subjected to immunoblotting. c Cells were transfected with pCAX APP 695 and pRK5-EGFP-Tau P301L for 24 h and were then incubated with MPT0G211 (0.01–1 μM) for another 24 h. Immunoblots reveal polyubiquitin complexes. d pCAX APP 695 or pRK5-EGFP-Tau P301L were used to transfect the cells for 24 h, incubated with or without MG132 (1 μM) for 30 min, and were then treated with MPT0G211 or ACY-1215 (0.1 μM) for another 24 h. Cell lysates were prepared for western blot analysis of the indicated proteins
# (§1) Cells (1 × 10^6) were incubated for 10 min at 4 °C in lysis buffer (20 mM HEPES, pH 7.4, 2 mM EGTA, 50 mM β-glycerophosphate, 0.1% Triton X-100, 10% glycerol, 1 mM dithiothreitol, 1 μg/mL leupeptin, 5 μg/mL aprotinin, 1 mM phenylmethylsulfonyl fluoride, and 1 mM sodium orthovanadate), scraped from the plate, incubated on ice for 10 min, and centrifuged at 17,000 × g for 30 min at 4 °C. Protein samples (30 μg) were electrophoresed through sodium dodecyl sulfate-polyacrylamide gels (SDS-PAGE) and transferred onto a nitrocellulose membrane, which was then blocked by incubation for 30 min at room temperature with 5% fat-free milk in PBS. Immunoblotting was performed by overnight incubation at 4 °C with primary antibodies in PBS, followed by incubation for 1 h at room temperature with HRP-conjugated secondary antibodies. Bound antibodies were measured using ECL reagent (T-Pro Biotechnology, New Taipei City, Taiwan), and the membrane was placed on a photographic film. Cell lysates (30 μg) were incubated with antibodies (1 μg each) and protein A/G agarose beads overnight at 4 °C. The precipitated beads were washed three times with 1 mL of ice-cold cell lysis buffer, and bound immune complexes were separated using 8% SDS-PAGE, followed by immunoblotting using the indicated primary antibody.
# [2] = test system: Neuro-2a cells; test: Western blot of acetyl-α-tubulin and acetyl-histone, Neuro-2a cells; assay type: cell-based, mouse; conditions: 0.1 to 1 μM, 24 h
# Protocol: Cell viabilities were determined by MTT assay. The results represent the mean ± SEM of three independent experiments; *p < 0.05, **p < 0.01 and ***p < 0.001 compared with controls TEXT PRINTED IN THE PICTURE: (A) no label printed: M.W. 293.32
# as §1
# [3] = test system: SH-SY5Y cells; test: Flow cytometry of sub-G1 (PI) and annexin V/PI in transfected SH-SY5Y cells; assay type: cell-based, human; conditions: 0.1 μM, 24 h
# Protocol: The fractionation scheme used to separate different cellular pools of tau, and the western blot analysis of the effects of the compounds on tau pools generated using the fractionation scheme are presented. b, d SH-SY5Y cells were transfected for 24 h with pCAX APP 695 and pRK5-EGFP-Tau P301L, incubated with or without MPT0G211 or ACY-1215 (0.1 μM) for another 24 h, and then the cells were fixed and stained by propidium iodide (b) or annexin V/PI double staining (d) and analyzed by flow cytometry. c, e Percentages of the subG1 phase (c) or annexin V-positive cells (e) in response to drug treatment as explained in (b). Results are presented as the mean ± SEM. *p < 0.05 and **p < 0.01 compared with the control group; ^#p < 0.05 and ^##p < 0.01 compared with the indicated groups TEXT PRINTED IN THE PICTURE: (B) MPT0G211: hAPP + hTauP301L: SubG1 10.91% | (B) ACY-1215: hAPP + hTauP301L: SubG1 15.40% | (D) MPT0G211: hAPP + hTauP301L: 9.56%; hAPP + hTauP301L: 11.26% | (D) ACY-1215: hAPP + hTauP301L: 9.28%; hAPP + hTauP301L: 11.25%
# After drug treatment, the cells were collected, washed with cold phosphate-buffered saline (PBS), and fixed with 75% alcohol overnight at −20 °C. After centrifugation, the fixed cells were washed with cold PBS and resuspended in DNA extraction buffer (0.2 M Na2HPO4, 0.1 M citric acid, pH 7.8) for 30 min. The cells were centrifuged and incubated with propidium iodide (PI) (0.1% Triton X-100, 100 μg/mL RNase A, and 80 μg/mL PI in PBS) for 30 min. The cell cycle was analyzed using a FACScan Flow cytometer and Cell Quest software (Becton Dickinson, Mountain View, CA, USA).
# [4] = test system: SH-SY5Y cells; test: Aβ1–40-induced tau phosphorylation, western blot; assay type: cell-based, human; conditions: Aβ1–40 10 μM 24 h, then 0.1 μM for 24 h
# Protocol: Cell lysates were prepared for western blot analysis of the indicated proteins. Results are presented as the mean ± SEM. *p < 0.05, **p < 0.01, and ***p < 0.001 compared with the control group; ^#p < 0.05, ^##p < 0.01, ^###p < 0.001 compared with the indicated groups
# as §1, with “The precipitated beads were washed three times with 1 mL of ice-cold cell lysis buffer, and bound immune complexes were separated using 8% SDS-PAGE, followed by immunoblotting using the indicated primary antibody.” left out
# [5] = test system: HDAC6; design: method as in PMID 29304284; conditions: cited from earlier work
# [6] = hAPP + hTauP301L transfected SH-SY5Y, Fig. 3d picture, quadrant not identified
smiles,measurement,setting,value
"O=C(NO)c1ccc(CNc2cccc3cccnc23)cc1 [MPT0G211, N-hydroxy-4-((quinolin-8-ylamino)methyl)benzamide]",coimmunoprecipitation of ubiquitin with p-tau (Ser396),[1]; 0.1 μM,clearly increased
same,HDAC6/Hsp90 binding,"[1]; 0.1 μM, IP",downregulation
same,acetylation of Hsp90,"[1]; 0.1 μM, IP",clearly enhanced
same,level of polyubiquitinated proteins,[1]; 0.01–1 μM,significantly accumulated
same,acetylation of histones,[2],without affecting the acetylation of histones
same,acetylation of α-tubulin,[2],concentration-dependently increased
same,SubG1 population,"[3]; hAPP + hTauP301L transfected SH-SY5Y, PI staining, Fig. 3b picture",10.91%
same,"annexin V/PI double staining, quadrant percentage",[3]; [6],11.26%
same,"annexin V/PI double staining, quadrant percentage (first value)",[3]; [6],9.56%
same,plasmid transfection-induced sub-G1 population and annexin V-positive apoptotic cells increase,[3]; transfected neuronal cells,significantly inhibited
same,GSK3β activity and Aβ1–40-induced tau phosphorylation,[4],diminished
same,selectivity for HDAC6 compared with the other HDAC isoforms,[5],1000 fold
same,IC50,[5]; read-out: HDAC6 inhibition IC50,0.291 nM
